Laboratory results reported in patent US9518000B2, “Bicyclo [2.2.1] acid GPR120 modulators” (BRISTOL-MYERS SQUIBB COMPANY, priority 2013, dated 2016).

Biological target: human GPR120 (Homo sapiens (Human), UniProt Q5NUL3)
Experiment: GPR120 pERK AlphaScreen SureFire Assay (human GPR120 pERK assay)
Assay type: cell-based
Conditions: CHOA12 or CHO-K1 cells stably transfected with the short form of human GPR120 receptor; phosphorylated ERK; read-out: EC50 values measured in the human GPR120 pERK assay
Text: GPR120 activity was monitored by measuring phosphorylation of ERK (pERK), since G protein receptors are known to activate the ERK signaling cascade either directly and/or through recruitment of arrestin that serves as a scaffold for downstream signaling events.
GPR120 pERK AlphaScreen SureFire Assay
The human and mouse GPR120-mediated intracellular phosphorylated ERK assays were established using CHOA12 cells stably transfected with the short form of human or mouse GPR120 receptor. Cells were cultured in growth medium consisting of F-12 media (Invitrogen Cat. #11765) with 5% Charcoal/Dextran FBS (Invitrogen Cat. #12676-029), 500 μg/mL GENETICIN® (Life Technologies Cat. #10131-027) and 250 μg/mL Zeocin (Invitrogen Cat. #R250-01). Cells were cryo preserved at a concentration of 2×10^7 cells/mL, in 90% Charcoal/Dextran FBS and 10% DMSO, and frozen in liquid nitrogen at a low passage number.
For the pERK assay, 2×10^7 cells/mL cryopreserved human and mouse cells were thawed rapidly in a 37° C. water bath and added to a T-225 flask containing 50 mL growth medium. The flasks were placed in a tissue culture incubator overnight (37° C., 5% CO2). The next day, cells were harvested with trypsin (Gibco Cat. #25300-054), resuspended in serum-containing growth medium and counted using a Cellometer and volume adjusted to a concentration of 0.6×10^6 cells/mL. Cells were plated into 384-well clear bottom tissue culture plates (BD Cat. #353962) at 50 μL/well, for a density of 30,000 cells/well using a MULTIDROP® and incubated for 16-18 hours (overnight) at 37° C. with 5% CO2. The next day, cells were serum starved in 30 μL of F-12 media without any serum or antibiotics for 2 hours at 37° C.
Test compounds were 3-fold, 11-point serially diluted in DMSO in a REMP assay plate (Matrix Cat. #4307) by Tecan and 5 μL was transferred into an ECHO source plate (LabCyte Cat. #LC-0200). Cells were then stimulated with 50 nL of compound dilutions using ECHO liquid handler for 7 minutes at 37° C. Compounds ranged from final assay concentrations of 33.33 μM to 0.56 nM.
The media was then dumped and cells lysed with 20 μL of 1× Lysis buffer from the AlphaScreen SureFire Phospho-ERK 1/2 Kit (Perkin Elmer Cat. #6760617M). The lysis buffer was diluted 5-fold with water before use. The plate was agitated on a shaker for 10 minutes after which 2 μL was transferred into a 384-well white proxiplate (Perkin Elmer Cat. #6008289). The SureFire assay reagent mix was prepared by mixing 60 parts Reaction Buffer, 10 parts Activation Buffer, 1 part Donor Beads, 1 part Acceptor Beads (Perkin Elmer Cat. #TGRES10K). 3.5 μL/well of this reagent mix was manually added to the proxiplate with a multichannel pipettor. Plates were spun down at 1000 rpm for 2 minutes, followed by light-protected incubation at room temperature for 2 hours. The plates were read on the Alpha-technology compatible Envision multilabel plate reader using AlphaScreen protocol according to manufacturer's specifications. The agonist effect of compounds was expressed as 100×(average sample-average blank)/(average total−average blank) where sample is the luminescence activity in the presence of test compound, blank is equal to the luminescence activity in the presence of DMSO control and the total is signal induced by 50 μM linolenic acid as reference compound. Activation data for the test compound over a range of concentrations was plotted as percentage activation of the test compound (100%=maximum response). After correcting for background, EC50 values were determined. The EC50 is defined as the concentration of test compound which produces 50% of the maximal response and was quantified using the 4 parameter logistic equation to fit the data.
The human and mouse GPR120-mediated intracellular phosphorylated ERK assays were also established using CHO-K1 cells stably transfected with the short form of human or mouse GPR120 receptor. […]

Chain of human GPR120 (Q5NUL3 whole entry): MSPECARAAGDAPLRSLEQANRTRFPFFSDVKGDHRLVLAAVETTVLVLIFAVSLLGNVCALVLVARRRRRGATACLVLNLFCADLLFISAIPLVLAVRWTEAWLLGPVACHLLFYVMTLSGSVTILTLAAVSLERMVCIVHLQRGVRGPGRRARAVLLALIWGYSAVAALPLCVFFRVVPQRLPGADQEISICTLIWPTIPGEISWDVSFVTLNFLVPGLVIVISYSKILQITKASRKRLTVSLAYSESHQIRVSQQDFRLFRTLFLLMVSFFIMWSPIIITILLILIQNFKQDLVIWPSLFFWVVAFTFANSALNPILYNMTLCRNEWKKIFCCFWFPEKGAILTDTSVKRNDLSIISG

Row | EC50 [µM] | Structure (SMILES)
1 | 0.75 | O=C(O)CCCC12CCC(OCc3cccc(-c4cccs4)c3)(CC1)C2 [Example 61, 4-(4-(3-(thiophen-2-yl)benzyloxy)bicyclo[2.2.1]heptan-1-yl) butanoic acid]
2 | 0.81 | Cc1ccc(Br)cc1COC12CCC(CCCC(=O)O)(CC1)C2 [Example 62, 4-(4-(5-bromo-2-methylbenzyl-oxy)bicyclo [2.2.1]heptan-1-yl)butanoic acid]
3 | 2.47 | O=C(O)CCCC12CCC(OCc3cc(C(F)(F)F)ccc3Cl)(CC1)C2 [Example 63, 4-(4-(2-chloro-5-(trifluoromethyl)benzyloxy)bicyclo[2.2.1]heptan-1-yl) butanoic acid]
4 | 1.51 | O=C(O)CCCC12CCC(OCc3ccccc3C(F)(F)F)(CC1)C2 [Example 64, 4-(4-(2-(trifluoro-methyl)benzyloxy)bicyclo[2.2.1]heptan-1-yl) butanoic acid]
5 | 1.27 | O=C(O)CCCC12CCC(OCc3cccc(C(F)(F)F)c3)(CC1)C2 [Example 65, 4-(4-(3-(trifluoro-methyl)benzyloxy)bicyclo[2.2.1]heptan-1-yl) butanoic acid]
6 | 4.96 | CSc1nccc(COC23CCC(CCCC(=O)O)(CC2)C3)n1 [Example 67, 4-(4-((2-(methylthio)pyrimidin-4-yl)methoxy)bicyclo[2.2.1]heptan-1-yl) butanoic acid]
7 | 1 | CC(CCC12CCC(OCc3ccccc3Oc3ccccc3)(CC1)C2)C(=O)O (stereo not drawn) [Example 68, 2-Methyl-4-(4-(2-phenoxybenzyloxy)bicyclo[2.2.1]heptan-1-yl)butanoic acid]
8 | 7.25 | CC1(C)Cc2cc(Cl)cc(COC34CCC(CCCO)(CC3)C4)c2O1 [Example 70, 3-(4-((5-Chloro-2,2-dimethyl-2,3-dihydrobenzofuran-7-yl)methoxy)bicyclo[2.2.1]heptan-1-yl)propan-1-ol]
9 | 6.64 | CC1(C)Cc2cc(Cl)cc(COC34CCC(CCC(=O)O)(CC3)C4)c2O1 [Example 71, 3-(4-((5-Chloro-2,2-dimethyl-2,3-dihydrobenzofuran-7-yl)methoxy)bicyclo[2.2.1]heptan-1-yl)propanoic acid]
10 | 1.12 | O=C(O)COCC12CCC(OCc3ccccc3Oc3ccccc3)(CC1)C2 [Example 72, 2-((4-(2-Phenoxybenzyloxy)bicyclo[2.2.1]heptan-1-yl)methoxy)acetic acid]
11 | 1.43 | O=C(O)COCC12CCC(OCc3cccc(Oc4ccccc4)c3)(CC1)C2 [Example 74, 2-((4-(3-phenoxybenzyloxy)bicyclo[2.2.1]heptan-1-yl)methoxy)acetic acid]
12 | 1.85 | O=C(O)COCC12CCC(OCc3cc(F)cc(Oc4ccc(F)cc4)c3)(CC1)C2 [Example 75, 2-((4-(3-fluoro-5-(4-fluorophenoxy)benzyloxy)bicyclo[2.2.1]heptan-1-yl)methoxy)acetic acid]
13 | 3.04 | CC(OC12CCC(COCC(=O)O)(CC1)C2)c1cc(F)cc(Oc2ccc(F)cc2)c1 (stereo not drawn) [Example 76, 2-((4-(1-(3-fluoro-5-(4-fluorophenoxy)phenyl)ethoxy)bicyclo[2.2.1]heptan-1-yl)methoxy)acetic acid]
14 | 4.53 | CC1(C)Cc2cc(Cl)cc(COC34CCC(COCC(=O)O)(CC3)C4)c2O1 [Example 77, 2-((4-((5-chloro-2,2-dimethyl-2,3-dihydrobenzofuran-7-yl)methoxy)bicyclo[2.2.1]heptan-1-yl)methoxy)acetic acid]
15 | 0.94 | O=C(O)COCC12CCC(OCc3cc(Cl)cc(OC(F)(F)F)c3)(CC1)C2 [Example 78, 2-((4-((3-chloro-5-(trifluoromethoxy)benzyl)oxy)bicyclo[2.2.1]heptan-1-yl)methoxy)acetic acid]
16 | 0.27 | O=C(O)CCOC12CCC(OCc3cc(F)cc(Oc4ccccc4)c3)(CC1)C2 [Example 79, 3-(4-(3-Fluoro-5-phenoxybenzyloxy)bicyclo[2.2.1]heptan-1-yloxy)propanoic acid]
17 | 0.4 | CS(=O)(=O)NC(=O)CCCC12CCC(OCc3cc(F)ccc3Oc3ccccc3)(CC1)C2 [Example 83, 4-(4-(5-Fluoro-2-phenoxybenzyloxy)bicyclo[2.2.1]heptan-1-yl)-N-(methylsulfonyl) butanamide]
18 | 3.03 | CNC(=O)CCCC12CCC(OCc3cccc(Oc4ccccc4)c3)(CC1)C2 [Example 84, N-Methyl-4-(4-((3-phenoxybenzyl)oxy)bicyclo[2.2.1]heptan-1-yl)butanamide]
19 | 2.4 | O=C(CCCC12CCC(OCc3cccc(Oc4ccccc4)c3)(CC1)C2)N1CC(O)C1 [Example 85, 1-(3-Hydroxyazetidin-1-yl)-4-(4-((3-phenoxybenzyl)oxy)bicyclo[2.2.1]heptan-1-yl)butan-1-one]
20 | 6.99 | O=C(O)CCC12CCC(OCCc3ccccc3Oc3ccccc3)(CC1)C2 [Example 86, 3-(4-(2-Phenoxyphenethoxy)bicyclo[2.2.1]heptan-1-yl)propanoic acid]
21 | 2.64 | O=C(O)CCC12CCC(OCCc3cccc(Oc4ccccc4)c3)(CC1)C2 [Example 88, 3-(4-(3-phenoxyphenethoxy)bicyclo[2.2.1]heptan-1-yl)propanoic acid]
22 | 2.64 | O=C(O)CCC12CCC(OCCc3cc(OC(F)(F)F)ccc3F)(CC1)C2 [Example 89, 3-((1S,4R)-4-(2-fluoro-5-(trifluoromethoxy)phenethoxy)bicyclo [2.2.1]heptan-1-yl) propanoic acid]
23 | 1.22 | O=C(O)CCC12CCC(OCc3cc(F)cc(Oc4ccccc4)c3)(CC1)C2 [Example 90, 3-(4-((3-fluoro-5-phenoxybenzyl)oxy)bicyclo [2.2.1]heptan-1-yl) propanoic acid]
24 | 0.63 | O=C(O)/C=C/CC12CCC(OCc3cccc(Oc4ccccc4)c3)(CC1)C2 [Example 94, (E)-4-(4-((3-Phenoxybenzyl)oxy)bicyclo[2.2.1]heptan-1-yl)but-2-enoic acid]
25 | 0.51 | O=C(O)C1CC1CC12CCC(OCc3cccc(Oc4ccccc4)c3)(CC1)C2 (stereo not drawn) [Example 95, 2-((4-((3-Phenoxybenzyl)oxy)bicyclo[2.2.1]heptan-1-yl)methyl)cyclopropanecarboxylic acid]
26 | 2.68 | NC(=O)CNC(=O)CCCC12CCC(OCc3cc(F)cc(Oc4ccccc4)c3)(CC1)C2 [Example 98, N-(2-Amino-2-oxoethyl)-4-(4-((3-fluoro-5-phenoxybenzyl)oxy)bicyclo[2.2.1]heptan-1-yl)butanamide]
27 | 6.36 | OCCC12CCC(OCc3cc(F)cc(Oc4ccccc4)c3)(CC1)C2 [Example 99, 2-(4-((3-Fluoro-5-phenoxybenzyl)oxy)bicyclo[2.2.1]heptan-1-yl)ethanol]
28 | 0.57 | O=C(O)COCCC12CCC(OCc3cc(F)cc(Oc4ccccc4)c3)(CC1)C2 [Example 100, 2-(2-(4-((3-Fluoro-5-phenoxybenzyl)oxy)bicyclo[2.2.1]heptan-1-yl)ethoxy)acetic acid]

Row | Structure (SMILES) | EC50 [µM]
29 | COC(=O)CCCC12CCC(OCc3cc(F)ccc3-c3ccc(C)cc3)(CC1)C2 [Example 66, methyl 4-(4-((4-fluoro-4′-methyl-[1,1′-biphenyl]-2-yl)methoxy)bicyclo [2.2.1]heptan-1-yl)butanoic] | 0.37
30 | O=C(O)CCC12CCC(OCCc3cccc4ccccc34)(CC1)C2 [Example 87, 3-(4-(2-(naphthalen-1-yl)ethoxy)bicyclo [2.2.1]heptan-1-yl) propanoic acid] | 1.31
